The term IC50 denotes the point on the concentration scale where inhibition reaches its midpoint.

In patent publication US20160168540A1, “COMPOSITION FOR MAINTAINING PLATELET FUNCTION” (KYOTO UNIVERSITY, priority 2013, published 2016) one finds IC50 data, which are given here for 35 compounds.

The target in this experiment is T1, TACE (ADAM17) (Homo sapiens, UniProt P78536).
T1 construct: made in house; host or cells: mammalian cells or insect cells
Description: TACE (ADAM17) inhibition test. The format is biochemical. The note with it: fluorescent synthetic substrate, 37° C. for 1.5 hours; read-out: TACE IC50. A digest of the protocol: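 Recombinant human TACE (mammalian or insect cell expressed) cleaves Nma-LAQAVRSSK(Dnp)-D-Arg-NH2 quenched substrate, 1.5 h at 37 °C. Fluorescence read at Ex 355/Em 460 nm; IC50 from inhibition vs no-compound control, binned A (<100 nM) or B (≥100 nM).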

T1 sequence (P78536 215-824): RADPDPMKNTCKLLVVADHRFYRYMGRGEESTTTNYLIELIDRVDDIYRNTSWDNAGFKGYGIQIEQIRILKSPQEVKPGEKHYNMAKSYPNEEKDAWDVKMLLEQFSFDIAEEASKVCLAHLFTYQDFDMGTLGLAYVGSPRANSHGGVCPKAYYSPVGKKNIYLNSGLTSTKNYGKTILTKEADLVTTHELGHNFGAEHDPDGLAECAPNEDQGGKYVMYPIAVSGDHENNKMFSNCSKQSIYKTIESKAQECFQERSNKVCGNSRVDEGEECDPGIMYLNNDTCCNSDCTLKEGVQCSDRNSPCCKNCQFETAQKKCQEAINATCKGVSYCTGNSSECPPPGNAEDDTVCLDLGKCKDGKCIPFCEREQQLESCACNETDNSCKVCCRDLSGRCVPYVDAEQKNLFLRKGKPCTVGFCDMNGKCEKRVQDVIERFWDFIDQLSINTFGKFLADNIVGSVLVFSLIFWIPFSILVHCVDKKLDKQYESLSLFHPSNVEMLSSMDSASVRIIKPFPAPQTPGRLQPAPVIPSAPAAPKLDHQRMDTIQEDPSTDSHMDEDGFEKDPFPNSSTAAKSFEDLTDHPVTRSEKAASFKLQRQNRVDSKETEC

Take `Cc1cccn(CC2(c3ccc(OC4CCCC4)cc3)NC(=O)NC2=O)c1=O` (racemic) [Compound I-124]: the IC50 was below 100 nM.
With `Cc1cccn(CC2(c3ccc(Cl)c(Cl)c3)NC(=O)NC2=O)c1=O` (racemic) [Compound I-125] the figure was below 100 nM; with `Cc1cccn(CC2(c3ccc(F)c(Cl)c3)NC(=O)NC2=O)c1=O` (racemic) [Compound I-126], below 100 nM.
For `COc1cc(C2(Cn3cccc(C)c3=O)NC(=O)NC2=O)cc(F)c1F` (racemic) [Compound I-127] the value was below 100 nM.
With `Cc1ccc(C2(Cn3cccc(C)c3=O)NC(=O)NC2=O)c(F)c1F` (racemic) [Compound I-128] the figure was below 100 nM.
As to `Cc1cc(C2(Cn3cccc(C)c3=O)NC(=O)NC2=O)cc(C)c1OC1CCCC1` (racemic) [Compound I-129], the IC50 was below 100 nM.
With `Cc1cccn(CC2(c3ccc(Cc4ccc(Cl)cc4)cc3)NC(=O)NC2=O)c1=O` (racemic) [Compound I-130] the figure was below 100 nM.
For `Cc1cc(C2(Cn3cccc(C)c3=O)NC(=O)NC2=O)ccc1OC1CCCCC1` (racemic) [Compound I-131] the value was below 100 nM; for `O=C1NC(=O)C(Cn2cccc(F)c2=O)(c2ccccc2)N1` (racemic) [Compound I-132], below 100 nM.
For `COc1ccc(C2(Cn3cccc(F)c3=O)NC(=O)NC2=O)cc1` (racemic) [Compound I-133] the value was below 100 nM; for `N#Cc1ccc(C2(Cn3cccc(F)c3=O)NC(=O)NC2=O)cc1` (racemic) [Compound I-134], below 100 nM; for `O=C1NC(=O)C(Cn2cccc(F)c2=O)(c2ccc3ccccc3c2)N1` (racemic) [Compound I-135], below 100 nM.
`O=C1NC(=O)C(Cn2cccc(Cl)c2=O)(c2ccc(F)cc2)N1` (racemic) [Compound I-136]: the IC50 is below 100 nM.
With `COc1ccc(C2(Cn3cccc(Cl)c3=O)NC(=O)NC2=O)cc1` (racemic) [Compound I-137] the figure was below 100 nM; with `N#Cc1ccc(C2(Cn3cccc(Cl)c3=O)NC(=O)NC2=O)cc1` (racemic) [Compound I-138], below 100 nM.
With `O=C1NC(=O)C(Cn2cccc(Br)c2=O)(c2ccccc2)N1` (racemic) [Compound I-139] the figure was below 100 nM.
With `O=C1NC(=O)C(Cn2cccc(C(F)(F)F)c2=O)(c2ccccc2)N1` (racemic) [Compound I-140] the figure was below 100 nM.
For the compound `COc1ccc(C2(Cn3cccc(C(F)(F)F)c3=O)NC(=O)NC2=O)cc1` (racemic) [Compound I-141], the IC50 was below 100 nM.
With `N#Cc1ccc(C2(Cn3cccc(C(F)(F)F)c3=O)NC(=O)NC2=O)cc1` (racemic) [Compound I-142] the figure was below 100 nM.
In the case of `COc1cccn(CC2(c3ccccc3)NC(=O)NC2=O)c1=O` (racemic) [Compound I-143], the IC50 was at least 100 nM.
With `C=C(C)c1cccn(CC2(c3ccc(OC)cc3)NC(=O)NC2=O)c1=O` (racemic) [Compound I-144] the figure was at least 100 nM.
With `O=C1NC(=O)C(Cn2cccc(F)c2=O)(c2ccc(F)c(F)c2)N1` (racemic) [Compound I-145] the figure was below 100 nM; with `O=C1NC(=O)C(Cn2cccc(Cl)c2=O)(c2ccc(F)c(F)c2)N1` (racemic) [Compound I-146], below 100 nM.
With `O=C1NC(=O)C(Cn2cccc(Br)c2=O)(c2ccc(F)c(F)c2)N1` (racemic) [Compound I-147] the figure was below 100 nM.
With `O=C1NC(=O)C(Cn2cccc(CO)c2=O)(c2ccc(F)c(F)c2)N1` (racemic) [Compound I-148], the IC50 is at least 100 nM.
As for `O=C1NC(=O)C(Cn2cccc(Br)c2=O)(c2ccc(Cc3ccccc3)cc2)N1` (racemic) [Compound I-149], the IC50 is below 100 nM.
With `O=C1NC(=O)C(Cn2cccc(Cl)c2=O)(c2ccc(Cc3ccccc3)cc2)N1` (racemic) [Compound I-150] the figure was below 100 nM; with `O=C1NC(=O)C(Cn2cccc(CO)c2=O)(c2ccc(Cc3ccccc3)cc2)N1` (racemic) [Compound I-151], at least 100 nM; with `O=C1NC(=O)C(Cn2cccc(F)c2=O)(c2ccc(Cc3ccccc3)cc2)N1` (racemic) [Compound I-152], at least 100 nM.
For `Cc1cccn(CC2(c3cccc(F)c3F)NC(=O)NC2=O)c1=O` (racemic) [Compound I-153] the value was below 100 nM; for `Cc1cccn(CC2(c3cc(F)ccc3F)NC(=O)NC2=O)c1=O` (racemic) [Compound I-154], below 100 nM; for `O=C1NC(=O)C(Cn2ccccc2=O)(c2ccc(F)c(F)c2)N1` (racemic) [Compound I-155], below 100 nM.
For `O=C1NC(=O)C(Cn2ccccc2=O)(c2ccc(Cc3ccccc3)cc2)N1` (racemic) [Compound I-156] the value was at least 100 nM; for `O=C1NC(=O)C(Cn2ccccc2=O)(c2cc(F)c(F)c(F)c2)N1` (racemic) [Compound I-157], below 100 nM; for `Cc1cc(C2(Cn3cccc(C)c3=O)NC(=O)NC2=O)ccc1OC1C=CCCC1` (centres unmarked) [Compound I-38], below 100 nM.
